Test results published in patent publication US20220132758A1, “INTRODUCTION OF ACTIVE SUBSTANCES AND/OR DYE INTO PLANT TISSUE” (priority 2018, published 2022).

System: bark beetle
Experiment: Imidacloprid-impregnated beech shaped pieces shot into bark beetle-infested spruce trees
Assay type: in vivo
Settings: 7% imidacloprid solution; 8 pieces per tree; after 3 weeks; bark 10 to 50 cm above the shooting sites
Protocol: 24 shaped pieces according to FIG. 1c, Z-. X-. Y-direction 45×13×3 mm, angle α 90°, angle β 60°, made of beech wood (Fagus sylvatica) were impregnated with a neonicotinoid, a 7% imidacloprid solution (solvent dichloromethane) and then dried. The chips were shot 8 at a time into bark beetle-infested spruce trees using a gas cramping device (Alsafix AGRAFEUSE SANS FIL 12GASCR). After 3 weeks, the bark in the region 10 to 50 cm above the shooting sites was removed and the feeding tunnels exposed.

In the case of `O=[N+]([O-])NC1=NCCN1Cc1ccc(Cl)nc1` [imidacloprid], the “living larvae in feeding tunnels” value is reported as “No living larvae were found”.
